Measurements taken from the supplement of paper PMC10307832.

Key:
Assay in all cases: relative viability (nuclei count vs DMSO), 5 days (fraction); higher = more cells survive
HARA = test system: HARA
Procedure, shortened: (§1)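 Each reported value is a median over duplicate plates. It expresses relative viability: treated-well nuclei count divided by vehicle-well nuclei count. Lung cancer cell lines in 1536-well plates were dosed by pin tool a day after seeding, alone with one drug or with a fixed anchor-drug dose plus five library-drug doses (not always all listed) in √10 steps, and nuclei were counted after 5 days.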

NCI-H2087 = test system: NCI-H2087
Procedure, shortened: as §1

NCI-H522 = test system: NCI-H522
Procedure, shortened: as §1

NCI-H2126 = test system: NCI-H2126
Procedure, shortened: as §1

NCI-H647 = test system: NCI-H647
Procedure, shortened: as §1

EMC-BAC-2 = test system: EMC-BAC-2
Procedure, shortened: as §1

LOU-NH91 = test system: LOU-NH91
Procedure, shortened: as §1

NCI-H2009 = test system: NCI-H2009
Procedure, shortened: as §1

NCI-H2347 = test system: NCI-H2347
Procedure, shortened: as §1

LCLC-103H = test system: LCLC-103H
Procedure, shortened: as §1

NCI-H727 = test system: NCI-H727
Procedure, shortened: as §1

201T = test system: 201T
Procedure, shortened: as §1

NCI-H596 = test system: NCI-H596
Procedure, shortened: as §1

NCI-H1395 = test system: NCI-H1395
Procedure, shortened: as §1

NCI-H1993 = test system: NCI-H1993
Procedure, shortened: as §1

NCI-H3122 = test system: NCI-H3122
Procedure, shortened: as §1

NCI-H1666 = test system: NCI-H1666
Procedure, shortened: as §1

HCC-44 = test system: HCC-44
Procedure, shortened: as §1

BEN = test system: BEN
Procedure, shortened: as §1

NCI-H441 = test system: NCI-H441
Procedure, shortened: as §1

NCI-H838 = test system: NCI-H838
Procedure, shortened: as §1

NCI-H23 = test system: NCI-H23
Procedure, shortened: as §1

NCI-H650 = test system: NCI-H650
Procedure, shortened: as §1

NCI-H2023 = test system: NCI-H2023
Procedure, shortened: as §1

Work on C[C@@H]1CN(CC(=O)Nc2ccc3c(c2)Cc2cccc(-c4cc(=O)cc(N5CCOCC5)o4)c2S3)C[C@H](C)O1 + CC(=O)Nc1cccc(-n2c(=O)n(C3CC3)c(=O)c3c(Nc4ccc(I)cc4F)n(C)c(=O)c(C)c32)c1 [Trametinib] (partner 0.02 µM) yielded a relative viability (HARA; first compound 0.04 µM) of 0.785, a relative viability (HARA; first compound 0.1265 µM) of 0.654 and a relative viability (HARA; first compound 0.4 µM) of 0.602. For the same compound, the relative viability (HARA; first compound 4 µM) was 0.406, the relative viability (NCI-H2087; first compound 0.04 µM) was 0.248 and the relative viability (NCI-H2087; first compound 0.1265 µM) was 0.224. It also gave a relative viability (NCI-H2087; first compound 0.4 µM) of 0.16, a relative viability (NCI-H2087; first compound 4 µM) of 0.184 and a relative viability (NCI-H522; first compound 0.04 µM) of 0.737. It also gave a relative viability (NCI-H522; first compound 0.1265 µM) of 0.749, a relative viability (NCI-H522; first compound 0.4 µM) of 0.724 and a relative viability (NCI-H522; first compound 4 µM) of 0.816. It also gave a relative viability (NCI-H2126; first compound 0.04 µM) of 0.558, a relative viability (NCI-H2126; first compound 0.1265 µM) of 0.573 and a relative viability (NCI-H2126; first compound 0.4 µM) of 0.561. It also gave a relative viability (NCI-H2126; first compound 4 µM) of 0.557, a relative viability (NCI-H647; first compound 0.04 µM) of 0.565 and a relative viability (NCI-H647; first compound 0.1265 µM) of 0.415. The relative viability (NCI-H647; first compound 0.4 µM) was 0.414, the relative viability (NCI-H647; first compound 4 µM) was 0.251 and the relative viability (EMC-BAC-2; first compound 0.04 µM) was 0.891. The relative viability (EMC-BAC-2; first compound 0.1265 µM) was 0.892, the relative viability (EMC-BAC-2; first compound 0.4 µM) was 0.782 and the relative viability (EMC-BAC-2; first compound 4 µM) was 0.688. The relative viability (LOU-NH91; first compound 0.04 µM) was 0.812, the relative viability (LOU-NH91; first compound 0.1265 µM) was 0.788 and the relative viability (LOU-NH91; first compound 0.4 µM) was 0.717. For the same compound, the relative viability (LOU-NH91; first compound 4 µM) was 0.715, the relative viability (NCI-H2009; first compound 0.04 µM) was 0.259 and the relative viability (NCI-H2009; first compound 0.1265 µM) was 0.261. The relative viability (NCI-H2009; first compound 0.4 µM) was 0.22, the relative viability (NCI-H2009; first compound 4 µM) was 0.197 and the relative viability (NCI-H2347; first compound 0.04 µM) was 0.273. It also gave a relative viability (NCI-H2347; first compound 0.1265 µM) of 0.331, a relative viability (NCI-H2347; first compound 0.4 µM) of 0.319 and a relative viability (NCI-H2347; first compound 4 µM) of 0.238. It also gave a relative viability (LCLC-103H; first compound 0.04 µM) of 0.668, a relative viability (LCLC-103H; first compound 0.1265 µM) of 0.629 and a relative viability (LCLC-103H; first compound 0.4 µM) of 0.68. The relative viability (LCLC-103H; first compound 4 µM) was 0.693, the relative viability (NCI-H727; first compound 0.04 µM) was 0.386 and the relative viability (NCI-H727; first compound 0.1265 µM) was 0.396. The relative viability (NCI-H727; first compound 0.4 µM) was 0.379, the relative viability (NCI-H727; first compound 4 µM) was 0.386 and the relative viability (201T; first compound 0.04 µM) was 0.732. For the same compound, the relative viability (201T; first compound 0.1265 µM) was 0.728, the relative viability (201T; first compound 0.4 µM) was 0.675 and the relative viability (201T; first compound 4 µM) was 0.739. For the same compound, the relative viability (NCI-H596; first compound 0.04 µM) was 0.771, the relative viability (NCI-H596; first compound 0.1265 µM) was 0.757 and the relative viability (NCI-H596; first compound 0.4 µM) was 0.725. It also gave a relative viability (NCI-H596; first compound 4 µM) of 0.768, a relative viability (NCI-H1395; first compound 0.1265 µM) of 1.11 and a relative viability (NCI-H1395; first compound 0.4 µM) of 0.824. For the same compound, the relative viability (NCI-H1395; first compound 4 µM) was 0.97, the relative viability (NCI-H1993; first compound 0.04 µM) was 0.521 and the relative viability (NCI-H1993; first compound 0.1265 µM) was 0.565. It also gave a relative viability (NCI-H1993; first compound 0.4 µM) of 0.521, a relative viability (NCI-H1993; first compound 4 µM) of 0.478 and a relative viability (NCI-H3122; first compound 0.04 µM) of 0.273. It also gave a relative viability (NCI-H3122; first compound 0.1265 µM) of 0.263, a relative viability (NCI-H3122; first compound 0.4 µM) of 0.212 and a relative viability (NCI-H3122; first compound 4 µM) of 0.189. It also gave a relative viability (NCI-H1666; first compound 0.04 µM) of 0.881, a relative viability (NCI-H1666; first compound 0.1265 µM) of 0.924 and a relative viability (NCI-H1666; first compound 0.4 µM) of 0.91. The relative viability (NCI-H1666; first compound 4 µM) was 0.738, the relative viability (HCC-44; first compound 0.04 µM) was 1.05 and the relative viability (HCC-44; first compound 0.1265 µM) was 1.03. The relative viability (HCC-44; first compound 0.4 µM) was 1.1, the relative viability (HCC-44; first compound 4 µM) was 1.03 and the relative viability (BEN; first compound 0.04 µM) was 0.972. The relative viability (BEN; first compound 0.1265 µM) was 0.99, the relative viability (BEN; first compound 0.4 µM) was 1.14 and the relative viability (BEN; first compound 4 µM) was 1.03. It also gave a relative viability (NCI-H441; first compound 0.04 µM) of 0.539, a relative viability (NCI-H441; first compound 0.1265 µM) of 0.481 and a relative viability (NCI-H441; first compound 0.4 µM) of 0.305. It also gave a relative viability (NCI-H441; first compound 4 µM) of 0.368, a relative viability (NCI-H838; first compound 0.04 µM) of 0.688 and a relative viability (NCI-H838; first compound 0.1265 µM) of 0.488. The relative viability (NCI-H838; first compound 0.4 µM) was 0.521, the relative viability (NCI-H838; first compound 4 µM) was 0.39 and the relative viability (NCI-H23; first compound 0.04 µM) was 0.356. For the same compound, the relative viability (NCI-H23; first compound 0.1265 µM) was 0.348, the relative viability (NCI-H23; first compound 0.4 µM) was 0.336 and the relative viability (NCI-H23; first compound 4 µM) was 0.286. It also gave a relative viability (NCI-H650; first compound 0.04 µM) of 0.954, a relative viability (NCI-H650; first compound 0.1265 µM) of 1 and a relative viability (NCI-H650; first compound 0.4 µM) of 0.874. It also gave a relative viability (NCI-H650; first compound 4 µM) of 0.697, a relative viability (NCI-H2023; first compound 0.04 µM) of 0.674 and a relative viability (NCI-H2023; first compound 0.1265 µM) of 0.507. The relative viability (NCI-H2023; first compound 0.4 µM) was 0.509 and the relative viability (NCI-H2023; first compound 4 µM) was 0.311.
